In patent publication US20240075027A1, “REPOSITIONING THE ANTI-LEPROSY DRUG CLOFAZIMINE AGAINST DRUG-RESISTANT MYELOMA AND PUTATIVE STEM-CELL SUBCLONES” (Auburn University, priority 2022, published 2024):
pEC50, pIC50: −log10 of the molar value. Where two headings read alike, the source gives them in different places.

Tests used:
[1] = test system: bone marrow-derived CD138+ primary myeloma cells (PMCs); experiment: Ex vivo direct-to-drug screening assay (CellTiter-Glo); format: cell-based; conditions: Homo sapiens, single-agent
Procedure: Bone marrow-derived CD138+ primary myeloma cells were obtained from patients (n=16) and used as ex vivo model systems. Written informed consent was received from participants prior to inclusion in the study. Participants have been identified by number, not by name. The primary samples were cultured as total bone marrow and put in culture to retain the patients' natural BM microenvironment. Cells of interest were CD138+-gated during analysis. The drugs were screened in a 7-point, 10-fold dilution, with the highest concentration at 10 μM, and incubated for 24 h. Anti-MM activity was assessed through cellular viability, evaluated with CellTiter-Glo®. The mid-point EC50, percentage of maximum inhibition was calculated using the TIBCO Spotfire® v.7.0.0 software, and the area under the curve (AUC) was calculated with the GraphPad Prism v.8 software (Bonolo de Campos et al., 2020, Blood Cancer J., 10:54).

HMCLs = experiment: Apoptosis assay (Annexin V-FITC flow cytometry); format: cell-based, human
Procedure: Cells were cultured for 48 h in the presence of indicated concentrations of compounds, harvested and washed, and incubated with Annexin V-FITC (BD Biosciences) and Propidium Iodide for 15 min at room temperature in the dark. Apoptosis was measured by BD LSR II flow cytometry (BD Biosciences).

[2] = test system: HMCLs and patient primary myeloma cells; experiment: Mass cytometry (CyTOF) single-cell proteomics; format: cell-based, human
Procedure: Mass cytometry (CyTOF) analysis is a single-cell proteomics methodology that combines flow cytometry and elemental mass spectrometry. Thirty-seven antibody targets directed against cell surface (neoplastic myeloma) and intracellular markers (immune tumor microenvironment) were utilized for immunophenotyping panels. The antibody markers and respective metal conjugates are described in Table 2. One to three million untreated or treated (for 24 h) HMCLs or primary human myeloma cells were used for CyTOF staining. Cells were stained with cisplatin (1:10,000 dilutions in RPMI1640 media without FBS) at 37° C. for 5 minutes, washed with media with 10% FBS, spun at 300×g, and incubated with media with 10% FBS for 15 min. This was followed by another wash, spin, and the pellet was resuspended in 1× Fix buffer for 10 minutes at room temperature. HMCL samples, along with lyophilized healthy human PBMC (Veri-Cells PBMC: control cells; BioLegend), were washed using Maxpar cell staining buffer (MCSB) (Fluidigm). A total of 16 μL of the surface antibody cocktail was added to each tube containing each cell suspension in 100 μL of MCSB and incubated for 30 minutes at room temperature. Cells were washed with MCSB to remove excess antibodies and stored overnight at −80° C. after methanol fixation. Cells were washed with MCSB and incubated with 20 μL of intracellular antibody cocktail for 30 minutes at room temperature, followed by wash and fixation with fresh 1.6% formaldehyde solution for 10 minutes at room temperature. Cells were washed with MCSB and resuspended in 1 ml of Cell-ID™ Intercalator solution (1:4000 dilution in permeabilization buffer, Maxper Fix, and Perm Buffer). All samples were barcoded using cell-ID™ 20-Plex Barcoding Kit (Fluidigm), which were then stained, washed with MSCB, and acquired as a single multiplexed sample using Maxpar Cell Acquisition solution contained calibration beads.
Samples were loaded onto a Helios CyTOF system (Fluidigm) using an attached autosampler and were acquired at a rate of 200-400 events per second. Data were collected as .FCS files using the CyTOF Software (Version 6.7.1014, Fluidigm). After acquisition, intrafile signal drift was normalized to the acquired calibration bead signal using the CyTOF Software.
For CyTOF data analysis, Cytobank software version 7.3.0 (Santa Clara, CA) was used for cleanup of cell debris, removal of doublets and dead cells, and analysis of cleaned fcs files. Clustering, dimensionality reduction (to 10,000 events per file), and the visualization of cell population cluster map were performed by t-SNE. Relative marker intensities and cluster abundances per sample were visualized by a heatmap.

[3] = test system: Side population (SP) cells in PI-resistant HMCLs; experiment: Side population analysis (DyeCycle Violet); format: cell-based, human
Procedure: Side population cells were investigated using DyeCycle™ Violet (cell-permeable DNA binding) assays according to manufacturer's instructions (Thermofisher). […] After 96 h, cells were stained with 10 μM Vybrant™ DyeCycle™ Violet (DCV; Molecular Probes, Eugene, OR) for 90 min at 37° C. Samples incubated with 100 μM verapamil (Sigma-Aldrich) for 30 min were used as positive control. Following dye incubation, cells were washed twice with ice-cold PBS, chilled on ice, and immediately analyzed by flow cytometry.

RPMI8226P/VR cells [4] = experiment: Mitochondrial membrane potential (JC-1); format: cell-based, human; conditions: 24 h
Procedure: CLF-treated (24 h) cells were incubated with 5 μM JC-1 dye for 15 min in the dark at 37° C. and washed twice in PBS, and then analyzed for red and green fluorescence by flow cytometry.

ALDH+ myeloma cells = experiment: Aldefluor (ALDH) activity assay; format: cell-based, human; conditions: 24 h
Procedure: Aldehyde dehydrogenase (ALDH) activity was assessed using the Aldefluor™ assay kit according to the manufacturer's instructions (Stem Cell Technologies). Briefly, 1×10^6 myeloma cells were treated with CLF-based regimens for 24 h, harvested, and resuspended in 1 ml Aldefluor™ assay buffer containing the ALDH substrate BODIPY-aminoacetaldehyde (BAAA). Negative control samples were treated with 5 μl of diethylaminobenzaldehyde (DEAB) as an inhibitor of ALDH1 enzymatic activity. Cells were incubated for 30-45 min at 37° C., then washed twice, and suspended in Aldefluor™ assay buffer. The brightly fluorescent ALDH+ cells were detected by BD LSR II flowcytometry.

[5] = cited from earlier work
[6] = test system: RPMI8226P, RPMI8226VR, U266P, and U266VR cells; experiment: CFSE assay of quiescent CD138+ cells; format: cell-based, human; conditions: parental and clonally derived PI-resistant cells
Procedure: For assessing apoptosis in quiescent CD138+ cells, myeloma cells were first stained with carboxyfluorescein succinimidyl ester (CFSE; Invitrogen) for 30 min, then washed and resuspended in RPMI1640 medium and were incubated at 37° C. overnight. The next day, cells were treated and maintained further for 4 days with supplementation of the drugs every 48 h.

[7] = test system: HMCLs (RPMI826 P/VR and U266 P/VR); experiment: Colony-forming cells (CFCs) assay (Methocult); format: cell-based, human
Procedure: Colony formation potential of untreated and drug-treated HMCLs was accessed using Methylcellulose-based assay according to manufacturer's instructions (Methocult, Stem Cell Technologies). Briefly, myeloma cells were treated with either CLF alone or in combination with PI for the indicated time period. Following incubation, cells were harvested, washed with PBS, and methylcellulose-based media (Methocult) was added to cells pellets, and colonies were allowed to grow for 4 weeks in 6-well plates. Images were captured after 4 weeks with an inverted microscope (Olympus, 4×/20× lens with color camera), and cell colony numbers were counted by Image J software (NIH).

[8] = test system: apoptotic, ER stress, autophagy and survival proteins in myeloma cells; experiment: Western blotting (immunoblotting) pre- vs post-treatment; format: cell-based, human
Procedure: Cells treated with CLF, PI, or IMiD as single-agent or as a combination for 24 h were harvested, washed, and lysed using radioimmunoprecipitation assay (RIPA) lysis buffer containing 50 mM Tris-HCl, pH 7.5, 150 mM NaCl, 1% NP40, 5 mM EDTA, 1 mM DTT, phosphatase and […] cocktail (Sigma), and incubated on ice for 15 min. Samples were then centrifuged at 14,000 rpm at 4° C. for 30 mins. The supernatant was then aspirated, total protein was isolated and quantified using Pierce BCA Protein Assay Kit (Thermo Scientific). Samples were solubilized in SDS-PAGE sample buffer, and equal amounts of protein were loaded per lane of 10% SDS polyacrylamide gels and transferred onto PVDF membranes (Millipore; Billerica, MA). Membranes were blocked in TBS with SuperBlock® blocking buffer (Thermo Fisher). Membranes were then incubated with primary antibodies and secondary antibodies in TBS with 0.2% Tween® 20 and 2.5% BSA. Immunoreactivity was detected by Chemiluminescent HRP Substrate (Bio-Rad), and the exposed image was captured using a ChemiDoc MP Imaging System (Bio-Rad). Densitometry analysis was performed (in triplicates) using Image J software.

[9] = test system: human myeloma cell lines (HMCLs); experiment: Drug synergy analysis (Calcusyn, Chou-Talalay combination index); format: cell-based; conditions: CLF in combination with PI or IMiD
Procedure: HMCLs were treated with increasing concentrations of CLF, PIs (represented by Ix), and IMiDs (represented by Len) as single agents or in combination for 48 h, and cytotoxicity assays were performed using CellTiter-Glo® Luminescent cell viability assay (Promega Madison, WI). Luminescence was recorded in a Neo2 Microplate Reader (Biotek), and half-maximal inhibitory concentration (IC50) values were determined by calculating the nonlinear regression using the sigmoidal dose-response equation (variable slope). The drug cytotoxicity data and IC50 values were used to compare response and to determine synergy by Calcusyn software (Biosoft; Chou-Talalay's CI theorem) (Chou, 2011, Am J Cancer Res, 1: 925-54). CI value <0.9 denotes synergism.

RPMI8226P/VR cells [10] = experiment: Superoxide levels (DHE flow cytometry); format: cell-based, human; conditions: 24 h
Procedure: Myeloma cells treated with CLF-based regimens for 24 h were incubated with 2.5 μM DHE (in RPMI) for 15 min in the dark at 37° C. Cells were then washed once with PBS, and red fluorescence was detected by flow cytometry.

[11] = test system: human myeloma cell lines (HMCLs); experiment: In vitro chemosensitivity assay (CellTiter-Glo cell viability); format: cell-based; conditions: single-agent
Text: A large panel of HMCLs representing innate sensitivity and resistance to PIs and IMiDs (similar to refractory disease) have been compiled, as well as >10 pairs of parental and clonally-derived PI/IMiD-resistant HMCLs (P vs R pairs; generated using dose escalation over a period of time) representing acquired or emerging drug resistance, and encompassing the broad spectrum of biological and genetic heterogeneity of myeloma (Mitra et al., 2017, Blood Cancer J., 7:e581). The human myeloma cell lines (HMCLs) were obtained as previously described (Mitra et al., 2017, Blood Cancer J., 7:e581). The clonally related acquired PI-resistant HMCLs were generated from parental cell lines by dose escalation of bortezomib using pulses of once-weekly bortezomib treatment as described previously (Mitra et al., 2016, Leukemia., 30:1094-1102). […]
HMCLs were treated with increasing concentrations of CLF, PIs (represented by Ix), and IMiDs (represented by Len) as single agents or in combination for 48 h, and cytotoxicity assays were performed using CellTiter-Glo® Luminescent cell viability assay (Promega Madison, WI). Luminescence was recorded in a Neo2 Microplate Reader (Biotek), and half-maximal inhibitory concentration (IC50) values were determined by calculating the nonlinear regression using the sigmoidal dose-response equation (variable slope). […]

[12] = test system: caspase-3/7 activity in HMCLs; experiment: Caspase-Glo 3/7 luminescent assay; format: cell-based, human
Procedure: Caspase-3/7 activity assays were performed on the HMCLs using Caspase-Glo 3/7 luminescent assay kit according to manufacturer's instructions (Promega Madison, WI). Briefly, 1×10^6 cells/ ml were cultured in 6-well plates and treated with either CLF alone and/or combination for indicated times. After harvesting, cells were washed twice with cold PBS and resuspended with Caspase-Glo 3/7 reagents. Reactions were incubated for 1 h at 37° C., and luminescence was determined using Synergy 2 Microplate Reader (Biotek). Cell death by apoptosis was also measured by immunoblotting analysis.

[13] = HMCLs and patient-derived primary cells, irrespective of PI- or IMiD-resistance

With `CC(C)/N=c1\cc2n(-c3ccc(Cl)cc3)c3ccccc3nc-2cc1Nc1ccc(Cl)cc1` [CLF, clofazimine] the pEC50 ([1]; ex vivo, patients n=12, read-out: maximum EC50) was 4.82, the pEC50 ([1]; ex vivo, patients n=12, read-out: median EC50) was 5.62 and the pEC50 ([1]; ex vivo, patients n=12, read-out: minimum EC50) was 5.98. For the same molecule, the pEC50 ([1]; patients n=12, range, read-out: ex vivo CLF EC50 values) was 4.82 to 6.00, the “apoptosis (annexin V staining)” value (HMCLs; CLF alone) was “significant apoptosis” and the “apoptosis (annexin V staining)” value (HMCLs; in combination with 15 nm ixazomib) was “significant apoptosis”. The “cleaved caspase-3 levels (CyTOF)” value [2, 13] was “elevated cleaved caspase-3 levels”, the “marker expression (CyTOF)” value [2, 13] was “downregulation of pS6, IRF4, pCREB, pRB, IKZF1” and the “cleaved caspase levels (CyTOF)” value ([2]; all cell lines and primary samples, cluster enriched for cells exposed to high dose CLF) was “elevated cleaved caspase levels”. For the same molecule, the “myeloma survival markers incl. IRF4, IKZF1, IKZF3, CD229, CD27, pS6, pERK, IkBa (CyTOF and immunoblotting)” value ([2]; pre- vs post-treatment) was “shifts in a majority of these markers”, the “side population (SP)” value [3] was “reduced SP” and the “mitochondrial membrane potential (JC-1)” value (RPMI8226P/VR cells [4]) was “mitochondrial membrane depolarization”. The ALDH activity (ALDH+ myeloma cells) was “significant decrease in ALDH activity”, the safe dose range ([5]; corresponds to human plasma Cmax) was 0.84 to 8.4 µM and the “human plasma Cmax” value ([5]; human plasma) was 400 to 4000 ng/mL. For the same molecule, the “apoptosis in CFSEbright and CFSEdim cells” value [6] was “caused apoptosis in both CFSEbright and CFSEdim cells”, the “number of CFSE-bright (non-dividing) cells” value [6] was “significantly reduced their number” and the colony formation ([7]; PI-resistant lines (RPMI826 P/VR and U266 P/VR)) was “significantly reduced colony formation”. The “colony number and colony size” value ([7]; compared to control or ixazomib) was “significantly reduced colony number as well as colony size”, the “ER stress pathway and autophagy proteins” value ([8]; IRE1, PERK, ATF6, mRNA sequencing, IPA and Western blotting) was “induces the proteins involved ER stress pathway” and the “anti-apoptotic/survival markers and Bax expression” value ([8]; Western blotting) was “decrease in the anti-apoptotic/survival markers Bcl2, Mcl-1 and increase in Bax expression”. For the same molecule, the “caspase activation (Western blotting)” value ([8]; caspase-3, 8, 9) was “activated caspase-3 and 9 but not 8”, the “STAT and HIF-1α expression” value ([8]; myeloma, FIG. 3D densitometry) was “downregulation of STATS and HIF-1α” and the “therapeutic index / amount of PI/IMiD required (dose reduction index, predicted decrease in IC50)” value [9] was “decreased the amount of PI/IMiD required to achieve effective responses”. For the same molecule, the “cellular superoxide anions (DHE)” value (RPMI8226P/VR cells [10]) was “induction of cellular superoxide anions”, the pIC50 ([11]; Homo sapiens, 48 h, panel of sensitive, innate and clonally-derived resistant HMCLs) was 4.69 to 6.70 and the “anti-myeloma potency compared with other PPARg agonists (rosiglitazone, pioglitazone)” value [11] was “most potent among all the PPARg agonists tested”. The “caspase-3 activity (Caspase 3/7 assay)” value [12] was “induced caspase-3 activity”.
